Tested on: RT-SHIV
Assay: Plasma SHIV RNA (RT-PCR) in RT-SHIV-infected macaques treated with CAB LA
Conditions: for Median VL treated: median of treated macaques
Method: CAB LA (200 mg/mL injectable stock aqueous suspension) was given at a dose of 50 mg kg^−1 under anesthesia by intramuscular injection into the quadriceps. Volumes greater than 1.0 mL were divided into two injection sites.

C[C@H]1CO[C@@H]2Cn3cc(C(=O)NCc4ccc(F)cc4F)c(=O)c(O)c3C(=O)N12 [CAB, cabotegravir]
SHIV RNA copies/ml (macaque CH54, day 32): 3049 copies/ml
SHIV RNA copies/ml (macaque CH54, day 36): 1291 copies/ml
SHIV RNA copies/ml (macaque CH54, day 39): 1031 copies/ml
SHIV RNA copies/ml (macaque CH54, day 43): 750 copies/ml
SHIV RNA copies/ml (macaque CH54, day 46): 485 copies/ml
SHIV RNA copies/ml (macaque CH54, day 50): 803 copies/ml
SHIV RNA copies/ml (macaque CH54, day 53): 49 copies/ml
SHIV RNA copies/ml (macaque CH54, day 57): 158 copies/ml
SHIV RNA copies/ml (macaque CH54, day 60): 2633 copies/ml
SHIV RNA copies/ml (macaque CH54, day 64): 1132 copies/ml
SHIV RNA copies/ml (macaque CH54, day 67): 4979 copies/ml
SHIV RNA copies/ml (macaque CJ92, day 14): 87372 copies/ml
SHIV RNA copies/ml (macaque CJ92, day 16): 9159 copies/ml
SHIV RNA copies/ml (macaque CJ92, day 18): 1727 copies/ml
SHIV RNA copies/ml (macaque CJ92, day 22): 101 copies/ml
SHIV RNA copies/ml (macaque CJ92, day 25): 49 copies/ml
SHIV RNA copies/ml (macaque CJ92, day 29): 423 copies/ml
SHIV RNA copies/ml (macaque CJ92, day 32): 300 copies/ml
SHIV RNA copies/ml (macaque CJ92, day 36): 57 copies/ml
SHIV RNA copies/ml (macaque CJ92, day 39): 270 copies/ml
SHIV RNA copies/ml (macaque CJ92, day 43): 49 copies/ml
SHIV RNA copies/ml (macaque CJ92, day 46): 108 copies/ml
SHIV RNA copies/ml (macaque CJ92, day 50): 163 copies/ml
SHIV RNA copies/ml (macaque CJ92, day 53): 49 copies/ml
SHIV RNA copies/ml (macaque CJ92, day 57): 49 copies/ml
SHIV RNA copies/ml (macaque CJ92, day 60): 49 copies/ml
SHIV RNA copies/ml (macaque CJ92, day 64): 49 copies/ml
SHIV RNA copies/ml (macaque CJ92, day 67): 50 copies/ml
Median VL treated (day 0): 49 copies/ml
Median VL treated (day 2): 21683 copies/ml
Median VL treated (day 4): 196903 copies/ml
Median VL treated (day 7): 674920 copies/ml
Median VL treated (day 9): 6944678 copies/ml
Median VL treated (day 11): 4288688 copies/ml
Median VL treated (day 14): 167021 copies/ml
Median VL treated (day 16): 25119 copies/ml
Median VL treated (day 18): 5906 copies/ml
Median VL treated (day 22): 688 copies/ml
Median VL treated (day 25): 322 copies/ml
Median VL treated (day 29): 1263 copies/ml
Median VL treated (day 32): 345 copies/ml
Median VL treated (day 36): 160 copies/ml
Median VL treated (day 39): 293 copies/ml
Median VL treated (day 43): 192 copies/ml
Median VL treated (day 46): 92 copies/ml
Median VL treated (day 50): 229 copies/ml
Median VL treated (day 53): 60 copies/ml
Median VL treated (day 57): 91 copies/ml
Median VL treated (day 60): 69 copies/ml
Median VL treated (day 64): 429 copies/ml
Median VL treated (day 67): 85 copies/ml
Median VL treated (day 71): 205 copies/ml
Median VL treated (day 74): 49 copies/ml
Median VL treated (day 78): 76 copies/ml
Median VL treated (day 81): 64 copies/ml
Median VL treated (day 85): 85 copies/ml
Median VL treated (day 88): 61 copies/ml
Median VL treated (day 92): 59 copies/ml
Median VL treated (day 95): 80 copies/ml
Median VL treated (day 102): 49 copies/ml
Median VL treated (day 106): 61 copies/ml
Median VL treated (day 115): 2657 copies/ml
Median VL treated (day 120): 15539 copies/ml
Median VL treated (day 134): 2817 copies/ml
Median VL treated (day 143): 2103 copies/ml
Median VL treated (day 148): 2164 copies/ml
Median VL treated (day 155): 1667 copies/ml
Median VL treated (day 162): 1714 copies/ml
Median VL treated (day 170): 1307 copies/ml
Median VL treated (day 176): 558 copies/ml
Median VL treated (day 183): 4928 copies/ml
Median VL treated (day 190): 6516 copies/ml
Median VL treated (day 197): 8692 copies/ml
Median VL treated (day 204): 9657 copies/ml

Source: article PMC6494879, “Drug resistance emergence in macaques administered cabotegravir long-acting for pre-exposure prophylaxis during acute SHIV infection” (Nature Communications, 2019)
